# Data: US8017602B2, “N-(2-(2-(5-hydroxy-3-oxo-3,4-dihydro-2H-benzo[b][1,4]oxazin-8-yl)ethylamino)ethyl)-3-(phenethoxy)propanamide derivatives, processes for their preparation, pharmaceutical compositions containing them and their use in therapy” (AstraZeneca AB, priority 2008, dated 2011)
# Counter-ions that a name gives are not always drawn.
# What was measured:
# [1] = molecular target: T1, Adrenergic β2 (Homo sapiens, UniProt P07550); test: Adrenergic β2 mediated cAMP production in H292 cells (AlphaScreen cAMP detection); format: cell-based; conditions: for β2 Int Act: Intrinsic Activity, fraction relative to the maximum activity determined for formoterol; for EC50: cAMP production, 60 min at room temperature, 300 μM rolipram, read-out: β2 pEC50 (converted)
# T1 construct: Adherent H292 cells were removed from tissue culture flasks; endogenous in cells; host or cells: H292 cells
# Procedure: H292 cells were grown in 225 cm2 flasks incubator at 37° C., 5% CO2 in RPMI medium containing, 10% (v/v) FBS (foetal bovine serum) and 2 mM L-glutamine.
# Adherent H292 cells were removed from tissue culture flasks by treatment with Accutase™ cell detachment solution for 15 min. Flasks were incubated for 15 min in a humidified incubator at 37° C., 5% CO2. Detached cells were re-suspended in RPMI media (containing 10% (v/v) FBS and 2 mM L-glutamine) at […]. 10000 cells in 100 μl were added to each well of a tissue-culture-treated 96-well plate and the cells incubated overnight in a humidified incubator at 37° C., 5% CO2. The culture media was removed and cells were washed twice with 100 μl assay buffer and replaced with 50 μL assay buffer (HBSS solution containing 10 mM HEPES pH7.4 and 5 mM glucose). Cells were rested at room temperature for 20 min after which time 25 μl of rolipram (1.2 mM made up in assay buffer containing 2.4% (v/v) dimethylsulphoxide) was added. Cells were incubated with rolipram for 10 min after which time test compounds were added and the cells were incubated for 60 min at room temperature. The final rolipram concentration in the assay was 300 μM and final vehicle concentration was 1.6% (v/v) dimethylsulphoxide. The reaction was stopped by removing supernatants, washing once with 100 μL assay buffer and replacing with 50 μL lysis buffer. The cell monolayer was frozen at −80° C. for 30 min (or overnight).
# AlphaScreen™ cAMP Detection
# The concentration of cAMP (cyclic adenosine monophosphate) in the cell lysate was determined using AlphaScreen™ methodology. The frozen cell plate was thawed for 20 min on a plate shaker then 10 μl of the cell lysate was transferred to a 96-well white plate. 40 μL of mixed AlphaScreen™ detection beads pre-incubated with biotinylated cAMP, was added to each well and the plate incubated at room temperature for 10 h in the dark. The AlphaScreen™ signal was measured using an EnVision spectrophotometer (Perkin-Elmer Inc.) with the recommended manufacturer's settings. cAMP concentrations were determined by reference to a calibration curve determined in the same experiment using standard cAMP concentrations. Concentration response curves for agonists were constructed and data was fitted to a four parameter logistic equation to determine both the pEC50 and Intrinsic Activity. Intrinsic Activity was expressed as a fraction relative to the maximum activity determined for formoterol in each experiment.
# [2] = molecular target: T2, recombinant human Dopamine Subtype D2s receptors (Homo sapiens, UniProt P14416); test: Dopamine D2 selectivity binding assay ([3H]-spiperone); conditions: inhibition of [3H]-spiperone binding, human D2s membranes; read-out: D2 bind pIC50 (converted)
# T2 construct: purchased Perkin Elmer
# Procedure: Membranes containing recombinant human Dopamine Subtype D2s receptors were obtained from Perkin Elmer. These were diluted in Assay Buffer (50 mM HEPES, 1 mM EDTA, 120 mM NaCl, 0.1% gelatin, pH 7.4) to provide a final concentration of membranes that gave a clear window between maximum and minimum specific binding.
# Assays were performed in U-bottomed 96-well polypropylene plates. 30 μL [^3H]-spiperone (0.16 nM final concentration) and 30 μl of test compound (10× final concentration) were added to each test well. For each assay plate 8 replicates were obtained for [^3H]-spiperone binding in the presence of 30 μL vehicle (10% (v/v) DMSO in Assay Buffer; defining maximum binding) or 30 μl Haloperidol (10 μM final concentration; defining non-specific binding (NSB)). Membranes were then added to achieve a final volume of 300 μL. The plates were incubated for 2 h at room temperature and then filtered onto PEI coated GF/B filter plates, pre-soaked for 1 h in Assay Buffer, using a 96-well plate Tomtec cell harvester. Five washes with 250 μl wash buffer (50 mM HEPES, 1 mM EDTA, 120 mM NaCl, pH 7.4) were performed at 4° C. to remove unbound radioactivity. The plates were dried then sealed from underneath using Packard plate sealers and MicroScint-O (50 μl) was added to each well. The plates were sealed (TopSeal A) and filter-bound radioactivity was measured with a scintillation counter (TopCount, Packard BioScience) using a 3-minute counting protocol.
# Total specific binding (B0) was determined by subtracting the mean NSB from the mean maximum binding. NSB values were also subtracted from values from all other wells. […] Data was fitted to a four parameter logistic equation to determine the compound potency, which was expressed as pIC50 (negative log molar concentration inducing 50% inhibition of [^3H]-spiperone binding).
# T1 sequence (P07550 whole entry): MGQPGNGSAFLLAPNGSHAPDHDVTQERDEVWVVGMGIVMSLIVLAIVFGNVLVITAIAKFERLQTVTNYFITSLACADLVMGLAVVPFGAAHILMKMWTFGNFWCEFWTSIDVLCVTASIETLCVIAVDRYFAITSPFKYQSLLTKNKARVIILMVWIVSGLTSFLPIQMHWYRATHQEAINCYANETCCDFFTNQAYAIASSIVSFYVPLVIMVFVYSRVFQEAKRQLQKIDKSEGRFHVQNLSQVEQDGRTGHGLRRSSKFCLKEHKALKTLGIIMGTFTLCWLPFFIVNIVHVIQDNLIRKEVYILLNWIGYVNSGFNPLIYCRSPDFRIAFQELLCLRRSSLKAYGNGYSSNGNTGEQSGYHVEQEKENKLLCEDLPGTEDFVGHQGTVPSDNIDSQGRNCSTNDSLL
# T2 sequence (P14416 1-414 isoform P14416-2): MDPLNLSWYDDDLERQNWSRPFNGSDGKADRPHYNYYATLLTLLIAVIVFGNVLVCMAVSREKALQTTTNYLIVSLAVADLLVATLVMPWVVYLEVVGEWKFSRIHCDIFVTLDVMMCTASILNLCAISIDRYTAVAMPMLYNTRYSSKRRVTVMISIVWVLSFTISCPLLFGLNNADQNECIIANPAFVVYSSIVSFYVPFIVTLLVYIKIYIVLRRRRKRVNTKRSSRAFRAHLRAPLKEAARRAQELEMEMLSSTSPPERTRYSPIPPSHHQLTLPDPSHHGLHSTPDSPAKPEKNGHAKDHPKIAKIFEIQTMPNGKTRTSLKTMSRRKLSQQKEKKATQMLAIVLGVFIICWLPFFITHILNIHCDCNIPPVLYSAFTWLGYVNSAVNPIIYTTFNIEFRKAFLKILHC
β2 Int Act [1],EC50 [1] [nM],IC50 [2] [nM],SMILES
0.81,10,2510,"Cn1nccc1-c1cccc(CCOCCC(=O)N(CCNCCc2ccc(O)c3c2OCC(=O)N3)C2CCCCC2)c1 [Example 03, N-Cyclohexyl-N-(2-(2-(5-hydroxy-3-oxo-3,4-dihydro-2H-benzo[b][1,4]oxazin-8-yl)ethylamino)ethyl)-3-(3-(1-methyl-1H-pyrazol-5-yl)phenethoxy)propanamide Trifluoroacetic Acid Salt]"
0.96,12.6,6310,"CCn1cc(-c2cccc(CCOCCC(=O)N(CCNCCc3ccc(O)c4c3OCC(=O)N4)C3CCCCC3)c2)nn1 [Example 04, N-Cyclohexyl-3-(3-(1-ethyl-1H-1,2,3-triazol-4-yl)phenethoxy)-N-(2-(2-(5-hydroxy-3-oxo-3,4-dihydro-2H-benzo[b][1,4]oxazin-8-yl)ethylamino)ethyl)propanamide Trifluoroacetic Acid Salt]"
0.87,7.94,3160,"Cn1cc(-c2cccc(CCOCCC(=O)N(CCNCCc3ccc(O)c4c3OCC(=O)N4)C3CCCCC3)c2)nn1 [Example 05, N-Cyclohexyl-N-(2-(2-(5-hydroxy-3-oxo-3,4-dihydro-2H-benzo[b][1,4]oxazin-8-yl)ethylamino)ethyl)-3-(3-(1-methyl-1H-1,2,3-triazol-4-yl)phenethoxy)propanamide Trifluoroacetic Acid Salt]"
0.92,15.8,6310,"Cn1nnc(-c2cccc(CCOCCC(=O)N(CCNCCc3ccc(O)c4c3OCC(=O)N4)C3CCCCC3)c2)n1 [Example 07, N-Cyclohexyl-N-(2-(2-(5-hydroxy-3-oxo-3,4-dihydro-2H-benzo[b][1,4]oxazin-8-yl)ethylamino)ethyl)-3-(3-(2-methyl-2H-tetrazol-5-yl)phenethoxy)propanamide Trifluoroacetic Acid Salt]"
0.92,15.8,3160,"Cn1nnnc1-c1cccc(CCOCCC(=O)N(CCNCCc2ccc(O)c3c2OCC(=O)N3)C2CCCCC2)c1 [Example 08, N-Cyclohexyl-N-(2-(2-(5-hydroxy-3-oxo-3,4-dihydro-2H-benzo[b][1,4]oxazin-8-yl)ethylamino)ethyl)-3-(3-(1-methyl-1H-tetrazol-5-yl)phenethoxy)propanamide Trifluoroacetic Acid Salt]"
0.92,7.94,> 10000,"CC(C)[C@@H](C)N(CCNCCc1ccc(O)c2c1OCC(=O)N2)C(=O)CCOCCc1cccc(-c2cnn(C)c2)c1 [Example 09, (R)—N-(2-(2-(5-Hydroxy-3-oxo-3,4-dihydro-2H-benzo[b][1,4]oxazin-8-yl)ethylamino)ethyl)-3-(3-(1-methyl-1H-pyrazol-4-yl)phenethoxy)-N-(3-methylbutan-2-yl)propanamide Trifluoroacetic Acid Salt]"
0.88,10,1000,"O=C1COc2c(CCNCCN(C(=O)CCOCCc3cccc(-c4cnco4)c3)C3CCCCC3)ccc(O)c2N1 [Example 10, N-Cyclohexyl-N-(2-(2-(5-hydroxy-3-oxo-3,4-dihydro-2H-benzo[b][1,4]oxazin-8-yl)ethylamino)ethyl)-3-(3-(oxazol-5-yl)phenethoxy)propanamide Trifluoroacetic Acid Salt]"
0.91,20,3980,"CC(C)n1cc(-c2cccc(CCOCCC(=O)N(CCNCCc3ccc(O)c4c3OCC(=O)N4)C3CCCCC3)c2)nn1 [Example 12, N-Cyclohexyl-N-(2-(2-(5-hydroxy-3-oxo-3,4-dihydro-2H-benzo[b][1,4]oxazin-8-yl)ethylamino)ethyl)-3-(3-(1-isopropyl-1H-1,2,3-triazol-4-yl)phenethoxy)propanamide Trifluoroacetic Acid Salt]"
0.85,10,3160,"Cn1cc(-c2cc(CCOCCC(=O)N(CCNCCc3ccc(O)c4c3OCC(=O)N4)C3CCCCC3)ccc2F)cn1 [Example 13, N-Cyclohexyl-3-(4-fluoro-3-(1-methyl-1H-pyrazol-4-yl)phenethoxy)-N-(2-(2-(5-hydroxy-3-oxo-3,4-dihydro-2H-benzo[b][1,4]oxazin-8-yl)ethylamino)ethyl)propanamide Trifluoroacetic Acid Salt]"
0.95,7.94,2510,"O=C1COc2c(CCNCCN(C(=O)CCOCCc3cccc(-c4c[nH]nn4)c3)C3CCCCC3)ccc(O)c2N1 [Example 14, 3-(3-(1H-1,2,3-Triazol-4-yl)phenethoxy)-N-cyclohexyl-N-(2-(2-(5-hydroxy-3-oxo-3,4-dihydro-2H-benzo[b][1,4]oxazin-8-yl)ethylamino)ethyl)propanamide Trifluoroacetic Acid Salt]"
0.83,12.6,> 10000,"O=C1COc2c(CCNCCN(C(=O)CCOCCc3cccc(-c4nn[nH]n4)c3)C3CCCCC3)ccc(O)c2N1 [Example 15, 3-(3-(2H-Tetrazol-5-yl)phenethoxy)-N-cyclohexyl-N-(2-(2-(5-hydroxy-3-oxo-3,4-dihydro-2H-benzo[b][1,4]oxazin-8-yl)ethylamino)ethyl)propanamide Trifluoroacetic Acid Salt]"
1.00,12.6,2000,"Cn1cc(-c2cccc(CCOCCC(=O)N(CCNCCc3ccc(O)c4c3OCC(=O)N4)C3CCCCC3)c2F)cn1 [Example 16, N-Cyclohexyl-3-(2-fluoro-3-(1-methyl-1H-pyrazol-4-yl)phenethoxy)-N-(2-(2-(5-hydroxy-3-oxo-3,4-dihydro-2H-benzo[b][1,4]oxazin-8-yl)ethylamino)ethyl)propanamide Trifluoroacetic Acid Salt]"
0.94,7.94,2510,"Cn1cc(-c2cc(F)cc(CCOCCC(=O)N(CCNCCc3ccc(O)c4c3OCC(=O)N4)C3CCCCC3)c2)cn1 [Example 17, N-Cyclohexyl-3-(3-fluoro-5-(1-methyl-1H-pyrazol-4-yl)phenethoxy)-N-(2-(2-(5-hydroxy-3-oxo-3,4-dihydro-2H-benzo[b][1,4]oxazin-8-yl)ethylamino)ethyl)propanamide Trifluoroacetic Acid Salt]"
0.95,6.31,2510,"O=C1COc2c(CCNCCN(C(=O)CCOCCc3cccc(-c4cnn(CC5CC5)c4)c3)C3CCCC3)ccc(O)c2N1 [Example 19, N-Cyclopentyl-3-(3-(1-(cyclopropylmethyl)-1H-pyrazol-4-yl)phenethoxy)-N-(2-(2-(5-hydroxy-3-oxo-3,4-dihydro-2H -benzo[b][1,4]oxazin-8-yl)ethylamino)ethyl)propanamide Trifluoroacetic Acid Salt]"
1.00,12.6,3160,"CCC[C@@H](C)N(CCNCCc1ccc(O)c2c1OCC(=O)N2)C(=O)CCOCCc1cccc(-c2cnn(C(C)C)c2)c1 [Example 21, (R)—N-(2-(2-(5-Hydroxy-3-oxo-3,4-dihydro-2H-benzo[b][1,4]oxazin-8-yl)ethylamino)ethyl)-3-(3-(1-isopropyl-1H-pyrazol-4-yl)phenethoxy)-N-(pentan-2-yl)propanamide Trifluoroacetic Acid Salt]"
